One assay relates to PrP^Sc exposed neurons. Particulars: cited from earlier work.
Another assay deals with 14-3-3 gene expression. The assay is described as follows: Expression of 14-3-3 gene in G. cydonium after exposition to PCB118 (Northern and Western Blotting). Format: in vivo, Geodia cydonium. To be noted: 2 μg PCB 118/g wet weight, incubation 0.5 to 6 days. The source says:
The analyses were accomplished by means of Northern Blotting [14-3-3 probe] (A) or Western Blotting [14-3-3 antibody] (B).
The employed method was PCR cloning.
The detection of expression of the 14-3-3 proteins on the protein level is accomplished by using antibodies. To this aim, one can either employ commercial antibodies (e.g. from the Calbiochem/Oncogene company) or antibodies raised against the recombinant invertebrate-14-3-3 protein from Geodia cydonium. […] The signals can again be quantified by using the chemiluminescence method. The tissue extracts can e.g. be prepared by homogenisation in a phosphate buffer containing 1 mM of EDTA and 1 mM of phenylmethylsulfonyl fluoride.
The 14-3-3-cDNA from the sea sponge Geodia cydonium was used as a gene probe for the detection of expression of the 14-3-3 proteins on the mRNA-level and the respective antibodies were used for determining the amount of protein. In the accomplished keeping experiments, PCB 118 was used as the model PCB.
1 ml of PCB118 (0.1 mg/ml in corn oil) were injected in 40 g sponge tissue. The samples were incubated in sea water for up to 6 days in 20 l aquariums at 17° C. with continuous aeration; the water was exchanged one time at day 2. Aliquot portions of the tissue (each about 200 mg) were withdrawn at the time zero or after an incubation period of 0.5; 1; 3; 5 and 6 days. […]

For `CCOC(=O)Nc1ccc(NCc2ccc(F)cc2)nc1N` [Flupirtin], in the assay on PrP^Sc exposed neurons, the “effect counteracting the neurotoxic peptide PrP106-126” value is “cytoprotective effect”, the “effect on PrP^Sc exposed neurons” value is listed as “protective effect” and the “extent of apoptosis caused by PrP106-126” value is on record as “reduces”.

Turning to `CC12CC3CC(C)(C1)CC(N)(C3)C2` [Memantin], the “effect on PrP^Sc exposed neurons” value in the assay on PrP^Sc exposed neurons is reported as “protective effect”. Take `Clc1ccc(-c2cc(Cl)c(Cl)cc2Cl)cc1Cl` [PCB118]: the “expression of the 14-3-3 gene (mRNA and protein)” value in the assay with 14-3-3 gene expression is recorded as “very high values”.
